Where a name gives a salt, the structure may show the parent alone. Read-outs that look alike come from different tables or passages of the source.
Experiments:
[1] = biological target: T1, SARS-CoV-2 PLpro (nsp3 1564–1878) (Severe acute respiratory syndrome coronavirus 2, UniProt P0DTD1); assay: biochemical; design: FRET-quenched peptide (Pro3) cleavage by PLpro, 10 min pre-incubation, slope over 20 min, normalised to no-compound control; details: read-out: % of control remaining
[2] = biological target: T1, SARS-CoV-2 PLpro (nsp3 1564–1878); assay: biochemical; design: FRET-quenched peptide (Pro3) cleavage by PLpro, 10 min pre-incubation, slope over 20 min, normalised to no-compound control; details: read-out: % of control remaining; remark: listed apart in the source

SMILES: CCCCCCCC/C=C\CCCCCCCC(=O)O [Oleic Acid]
- remaining activity at 3.75 µM ([1]; Well no.=848, high concentration screen): 101%
- remaining activity at 3.75 µM ([1]; Well no.=7347, high concentration screen): 104%
- remaining activity at 1.25 µM ([2]; Well no.=848, low concentration screen): 102%

SMILES: Cc1cc(Cn2c(=O)n(Cc3cnc(C)s3)c(=O)c3cc(S(=O)(=O)NC4(C)CC4)ccc32)n(C)n1 [PDD 00017273]
- remaining activity at 3.75 µM ([1]; Well no.=8182, high concentration screen): 98.5%
- remaining activity at 1.25 µM ([2]; Well no.=8182, low concentration screen): 105%

SMILES: CC(C)n1c(/C=C/[C@@H](O)C[C@@H](O)CC(=O)O)c(-c2ccc(F)cc2)c2ccccc21 [Fluvastatin sodium (Lescol)]
- remaining activity at 3.75 µM ([1]; Well no.=4998, high concentration screen): 102%
- remaining activity at 1.25 µM ([2]; Well no.=4998, low concentration screen): 106%

SMILES: NC(N)=NCc1cccc(I)c1 [m-Iodobenzylguanidine hemisulfate]
- remaining activity at 3.75 µM ([1]; Well no.=777, high concentration screen): 108%
- remaining activity at 1.25 µM ([2]; Well no.=777, low concentration screen): 105%

SMILES: C#CCNCc1cc2cc(OCc3ccccc3)ccc2[nH]1 [N-((5-(benzyloxy)-1H-indol-2-yl)methyl)prop-2-yn-1-amine]
- remaining activity at 3.75 µM ([1]; Well no.=5630, high concentration screen): 96.5%
- remaining activity at 1.25 µM ([2]; Well no.=5630, low concentration screen): 95.4%

SMILES: CC(=O)Nc1nc2c(Oc3cc(-c4ccc(C(F)(F)F)cc4)ncn3)cccc2s1 [AMG-517]
- remaining activity at 3.75 µM ([1]; Well no.=5176, high concentration screen): 99.6%
- remaining activity at 1.25 µM ([2]; Well no.=5176, low concentration screen): 102%

SMILES: COc1cc(/C=C/C(O)=C/C(=O)/C=C/c2ccc(O)cc2)ccc1O [Demethoxycurcumin]
- remaining activity at 3.75 µM ([1]; Well no.=6262, high concentration screen): 98.7%
- remaining activity at 1.25 µM ([2]; Well no.=6262, low concentration screen): 103%

SMILES: CCCOC(=O)c1ccc(O)cc1 [Propylparaben]
- remaining activity at 3.75 µM ([1]; Well no.=7453, high concentration screen): 101%
- remaining activity at 1.25 µM ([2]; Well no.=7453, low concentration screen): 105%

SMILES: C#CCN[C@@H]1CCc2ccccc21 [Rasagiline mesylate]
- remaining activity at 3.75 µM ([1]; Well no.=4766, high concentration screen): 97.6%
- remaining activity at 1.25 µM ([2]; Well no.=4766, low concentration screen): 98.4%

SMILES: CN1C[C@H](CO)C=C2c3cccc4[nH]cc(c34)C[C@H]21 [Lysergol]
- remaining activity at 3.75 µM ([1]; Well no.=3382, high concentration screen): 93.3%
- remaining activity at 1.25 µM ([2]; Well no.=3382, low concentration screen): 96.8%

SMILES: Cc1cccc(C2CN(C)CCc3c2cc(O)c(O)c3Cl)c1 (stereo not drawn) [SKF 83959 hydrobromide]
- remaining activity at 3.75 µM ([1]; Well no.=1264, high concentration screen): 108%
- remaining activity at 1.25 µM ([2]; Well no.=1264, low concentration screen): 106%

SMILES: Cc1cccc(-c2nn(C(=S)Nc3ccccc3)cc2-c2ccnc3ccccc23)n1 [3-(6-methyl-2-pyridinyl)-N-phenyl-4-(4-quinolinyl)-1H-pyrazole-1-carbothioamide]
- remaining activity at 3.75 µM [1]: 100%
- remaining activity at 1.25 µM [2]: 99.2%

SMILES: CC(C)=CCC[C@](C)(O)[C@H]1CC[C@]2(C)[C@@H]1CC[C@@H]1[C@@]3(C)CCC(=O)C(C)(C)[C@@H]3CC[C@]12C [Dipterocarpol]
- remaining activity at 3.75 µM ([1]; Well no.=3204, high concentration screen): 106%
- remaining activity at 1.25 µM ([2]; Well no.=3204, low concentration screen): 105%

SMILES: CC(C)(C)c1cc(/C=C(\C#N)C(N)=S)cc(C(C)(C)C)c1O [Tyrphostin AG 879]
- remaining activity at 3.75 µM ([1]; Well no.=1427, high concentration screen): 85.7%
- remaining activity at 1.25 µM ([2]; Well no.=1427, low concentration screen): 95.8%

SMILES: CNCCC(Oc1ccccc1OC)c1ccccc1 (stereo not drawn) [Nisoxetine.HCl]
- remaining activity at 3.75 µM ([1]; Well no.=1789, high concentration screen): 99.5%
- remaining activity at 1.25 µM ([2]; Well no.=1789, low concentration screen): 103%

SMILES: CN(C)CCC(c1ccc(Cl)cc1)c1ccccn1 (stereo not drawn) [Chlorpheniramine]
- remaining activity at 3.75 µM ([1]; Well no.=2229, high concentration screen): 95.1%
- remaining activity at 1.25 µM ([2]; Well no.=2229, low concentration screen): 93.7%

SMILES: c1ccc(-c2[nH]ncc2-c2ccnc3ccccc23)nc1 [LY 364947 - 4-[3-(2-Pyridinyl)-1H-pyrazol-4-yl]-quinoline]
- remaining activity at 3.75 µM ([1]; Well no.=2622, high concentration screen): 101%
- remaining activity at 1.25 µM ([2]; Well no.=2622, low concentration screen): 96.3%

SMILES: CCC[C@H](NC(=O)/C(C#N)=C/c1cccc(Br)n1)c1ccccc1 [WP1130]
- remaining activity at 3.75 µM ([1]; Well no.=4862, high concentration screen): 98.1%
- remaining activity at 1.25 µM ([2]; Well no.=4862, low concentration screen): 95.4%

SMILES: CCc1c(O)cc(O)c(C(=O)c2ccc(OCCN3CCOCC3)c(OC)c2)c1CC(=O)N(CCOC)CCOC [KW-2478]
- remaining activity at 3.75 µM ([1]; Well no.=5342, high concentration screen): 94.5%
- remaining activity at 1.25 µM ([2]; Well no.=5342, low concentration screen): 93.8%

SMILES: Cc1ccc(-n2nc(C(C)(C)C)cc2NC(=O)Nc2ccc(OCCN3CCOCC3)c3ccccc23)cc1 [BIRB 796 (Doramapimod)]
- remaining activity at 3.75 µM ([1]; Well no.=5264, high concentration screen): 89.7%
- remaining activity at 1.25 µM ([2]; Well no.=5264, low concentration screen): 89.3%

SMILES: CCCCCCCCCCCCCCCC(=O)OC[C@H](O)[C@H]1OC(=O)C(O)=C1O [Ascorbyl palmitate]
- remaining activity at 3.75 µM ([1]; Well no.=4041, high concentration screen): 105%
- remaining activity at 1.25 µM ([2]; Well no.=4041, low concentration screen): 102%

SMILES: CCOc1nc(NC(=O)Cc2cc(OC)ccc2OC)cc(N)c1C#N [JNK Inhibitor VIII]
- remaining activity at 3.75 µM ([1]; Well no.=2550, high concentration screen): 100%
- remaining activity at 1.25 µM ([2]; Well no.=2550, low concentration screen): 99.5%

SMILES: CCn1nc(C(=O)O)c(=O)c2cc3c(cc21)OCO3 [Cinoxacin]
- remaining activity at 3.75 µM ([1]; Well no.=332, high concentration screen): 96.9%
- remaining activity at 1.25 µM ([2]; Well no.=332, low concentration screen): 98.1%

SMILES: S=C(N/N=C1\CCCc2cccnc21)N1CCN(c2ccccn2)CC1 [COTI-2]
- remaining activity at 3.75 µM ([1]; Well no.=6156, high concentration screen): 110%
- remaining activity at 1.25 µM ([2]; Well no.=6156, low concentration screen): 109%

SMILES: C[C@H]1[C@H](C)CC[C@]2(C(=O)O)CC[C@]3(C)C(=CC[C@@H]4[C@@]5(C)CC[C@H](O)C(C)(C)[C@@H]5CC[C@]43C)[C@H]12 [Ursolic acid]
- remaining activity at 3.75 µM ([1]; Well no.=3585, high concentration screen): 113%
- remaining activity at 1.25 µM ([2]; Well no.=3585, low concentration screen): 107%

SMILES: COc1ccc(S(=O)(=O)Nc2c(C)cc(C)cc2C)cc1 [GSK137647A]
- remaining activity at 3.75 µM ([1]; Well no.=7757, high concentration screen): 103%
- remaining activity at 1.25 µM ([2]; Well no.=7757, low concentration screen): 103%

SMILES: COc1ccccc1N1CCN(CC(O)COc2cccc3ccccc23)CC1 (stereo not drawn) [Naftopidil dihydrochloride]
- remaining activity at 3.75 µM ([1]; Well no.=1084, high concentration screen): 95.6%
- remaining activity at 1.25 µM ([2]; Well no.=1084, low concentration screen): 96.1%

SMILES: OC[C@H]1O[C@@H](Oc2cc(O)cc(/C=C/c3ccc(O)cc3)c2)[C@H](O)[C@@H](O)[C@@H]1O [Polydatin]
- remaining activity at 3.75 µM ([1]; Well no.=6304, high concentration screen): 98.5%
- remaining activity at 3.75 µM ([1]; Well no.=8196, high concentration screen): 97.4%
- remaining activity at 1.25 µM ([2]; Well no.=6304, low concentration screen): 100%
- remaining activity at 1.25 µM ([2]; Well no.=8196, low concentration screen): 102%

SMILES: CC(=O)NCCCC[C@H](N)C(=O)O [Nepsilon-Acetyl-L-lysine]
- remaining activity at 3.75 µM ([1]; Well no.=6211, high concentration screen): 106%
- remaining activity at 1.25 µM ([2]; Well no.=6211, low concentration screen): 116%

SMILES: C=CCN1CCc2cccc3c2[C@H]1Cc1ccc(O)c(O)c1-3 [R(-)-N-Allylnorapomorphine hydrobromide]
- remaining activity at 3.75 µM ([1]; Well no.=398, high concentration screen): 97.4%
- remaining activity at 1.25 µM ([2]; Well no.=398, low concentration screen): 98.8%

SMILES: CN1CCC(OC(c2ccccc2)c2ccccc2)CC1 [Diphenylpyraline (hydrochloride)]
- remaining activity at 3.75 µM ([1]; Well no.=6853, high concentration screen): 102%
- remaining activity at 1.25 µM ([2]; Well no.=6853, low concentration screen): 100%

SMILES: CO[C@@]12[C@H](COC(N)=O)C3=C(C(=O)C(C)=C(N)C3=O)N1C[C@@H]1N[C@@H]12 [Mitomycin C]
- remaining activity at 3.75 µM ([1]; Well no.=1672, high concentration screen): 110%
- remaining activity at 3.75 µM ([1]; Well no.=3563, high concentration screen): 100%
- remaining activity at 3.75 µM ([1]; Well no.=7364, high concentration screen): 102%
- remaining activity at 1.25 µM ([2]; Well no.=1672, low concentration screen): 110%
- remaining activity at 1.25 µM ([2]; Well no.=3563, low concentration screen): 98.9%
- remaining activity at 1.25 µM ([2]; Well no.=7364, low concentration screen): 98.5%

SMILES: O=C(Nc1ncc([N+](=O)[O-])s1)c1ccc([N+](=O)[O-])c(Cl)c1 [SM-7368]
- remaining activity at 3.75 µM ([1]; Well no.=5947, high concentration screen): 103%
- remaining activity at 1.25 µM ([2]; Well no.=5947, low concentration screen): 104%

SMILES: NC(=S)NN=Cc1ncccc1N [3-amino-2-pyridinecarbaldehyde thiosemicarbazone]
- remaining activity at 3.75 µM ([1]; Well no.=5964, high concentration screen): 97.9%
- remaining activity at 1.25 µM ([2]; Well no.=5964, low concentration screen): 98.3%

From publication PMC8286840, “Identifying SARS-CoV-2 antiviral compounds by screening for small molecule inhibitors of Nsp3 papain-like protease” (Biochemical Journal, 2021)
